Measurements from US6150393A (priority 1999, dated 2000).

Assays:
[1] = Bar catalepsy test in rats (extrapyramidal side effect analysis); format: in vivo, rat (male Sprague-Dawley); conditions: same dosing parameters and protocol; n=10 per dose; data not shown
[2] = test system: 5HT2 receptors; test: DOI locomotor activity test in rats (DOI inhibition study), intraperitoneal test compound; format: in vivo, rat (male Sprague-Dawley); conditions: i.p. 30 min before DOI (0.3 mg/kg s.c.)
Procedure: (§1) FIG. 3 provides a graphic summary of dose-response results from in vivo analysis of compound 116082 in a 1-(2,5-dimethoxy-4-iodophenyl)-2-aminopropane ("DOI") inhibition study (fine movement; ambulation; and animal rearing outcome measures). 116082 was administered 30 min prior to DOI. Animals were placed in locomotor activity cages 10 min after DOI administration and activity was measured for 10 min. Results are presented as total activity counts over the 10 min of exposure to the locomotor activity apparatus.
as §1, with “FIG. 4” for “FIG. 3”, “compound 116081” for “compound 116082”, “a DOI” for “a 1-(2,5-dimethoxy-4-iodophenyl)-2-aminopropane ("DOI")”, “measures). 116081” for “measures). 116082”
Assessment of 5-HT2 receptor antagonism in vivo was made by using the DOI locomotor activity test in rats as described by Krebs-Thomson (Psychopharmacology, 140:69-74, 1998).
Motor function was assessed by using automated locomotor activity cages. The rats were placed in a standard rodent cage surrounded by photocell beams, which allow for automated recording of motor activity. […]

[3] = test system: 5HT2 receptors; test: DOI inhibition study in rats, oral administration of test compound (oral availability); format: in vivo, rat
Procedure: (§2) FIG. 6 provides a graphic summary of the effects of oral administration of 116082 and 116081 in a DOI inhibition study in rats. Values represent the mean±SEMs (n=6/group). #P<0.05 vs. vehicle/vehicle, *P<0.05 vs. vehicle/DOI, Student t-test.
(§3) Based upon the in vivo data developed, oral bioavailability of compounds […] was considered. The compounds were administered by oral gavage at a dose of 50 mg/kg, 30 min prior to DOI in rats (see Example 11A, supra). Animals were placed in the locomotor activity cages 10 min after DOI administration and activity was measured for 10 min. Results, presented in FIG. 6, provide total activity counts over the 10 min of exposure to the locomotor activity apparatus.

[4] = as above; format: in vivo, rat; conditions: in vivo; rat; 50 mg/kg oral vs 10 mg/kg i.p., inferred from DOI test
Procedure: as §2, §3

With Cn1cc(Br)c(-c2cccc(NC(=O)Nc3ccc(Cl)cc3)c2)n1 [Compound 116081, N-[3-(4-bromo-1-methylpyrazol-3-yl)phenyl][(4-chlorophenyl)amino]carboxamide] the cataleptic response [1] was “did not produce a cataleptic response”, the “reversal of DOI-induced motor dysfunction” value [2] was “beneficially reverses DOI-induced motor dysfunction” and the “oral efficacy compared with intraperitoneal administration” value ([3]; 50 mg/kg oral vs 10 mg/kg i.p.) was “as efficacious as a 10 mg/kg dose of the same compounds administered intraperitoneally”. The “reversal of DOI-induced motor dysfunction, oral” value ([3]; oral gavage 50 mg/kg, 30 min prior to DOI) was “reversed DOI-induced motor dysfunction in rats”, the oral activity ([3]; rat, DOI test, 50 mg/kg oral) was “orally active” and the bioavailability [4] was ≥ 20%.
